Where two headings read alike, the source gives them in different places.
Columns and labels:
[1] = Shelf-life and storage stability of lidocaine formulations; assay type: physicochemical
[2] = test system: mild to moderate asthma patients; details: placebo=0.35
[3] = 100 mg in 2.5 ml of 40 mg/ml solution, PARI LC PLUS nebulizer; cited from earlier work

CCN(CC)CC(=O)Nc1c(C)cccc1C [lidocaine, acetamide 2-(diethylamino)-N-(2,6-dimethylphenyl)]
stable without loss of strength ([1]; 1%, 4% or 10% solution in Blow-Fill-Seal vials with overwrap, room temperature): 9-12 months | shelf-life of the dry form ([1]; dry form): at least 2 years | AQLQ environmental domain, mean change at week 12 from baseline ([2]; 10 mg lidocaine, p=0.012 v. placebo): 2.09 | AQLQ environmental domain, mean change at week 12 from baseline ([2]; 40 mg lidocaine, p=0.01 v. placebo): 2.45 | duration of oral numbing of lips, tongue and mucosa with impaired gag reflex following inhalation [3]: approximately 15 minutes
